In patent US9790188B2, “Benzimidazole derivatives and uses thereof” (Whitehead Institute for Biomedical Research, priority 2013, dated 2017):
“Also recorded” adds a separate entry of the source.

Assays:
[1] = tested on: Cpy; assay: CPY western blot, ER-to-Golgi trafficking in α-syn yeast; type: cell-based; settings: α-syn-expressing yeast
Method: CPY western blots were performed using culture conditions as described above. An anti-Cpy antibody (Invitrogen, A6428) was used at 1:5,000. Post-ER:ER ratios were quantitated using an IRDye800 secondary antibody (Li-Cor Odyssey, Rockland Immunochemicals) and scanned with the Li-Cor Odyssey imaging system. Significance was determined using a one-way ANOVA and Tukey's test of significance.

[2] = tested on: α-syn; assay: Yeast growth rescue from α-syn toxicity (dose-response); type: cell-based
Method: For galactose-induction experiments, overnight cultures were grown in CSM/2% glucose to saturation and diluted 1:20 into CSM/2% raffinose for ˜2 generations. Cultures were then diluted into CSM/2% galactose at an optimum OD600 for the experiment (see ‘Growth assays’).
Source plates were assembled in 96 well plates using multichannel pipettes to dilute rows in 1.6-fold serial dilutions of CSMGal. […] For α-syn, the final starting OD600 was 0.02. Drug concentration ranges varied depending on efficacy, growth inhibition, and solubility in media. A Tecan EvoFreedom liquid handling robot was then used to transfer culture from 96 to 384 well format with each well being represented four times. Final well volume was 35 μL. Plates were then incubated in humidified containers at 30° C. for either 24 or 40 hours. Plates were then read with a Tecan Saphire plate reader at OD600.
Raw OD600 values were transformed to “Relative Growth” in WT cells or “% Maximum Rescue” in α-syn experiments. In WT cells, the well background was subtracted and all values were then normalized to 100% for the untreated condition. In α-syn rescue experiments, the well background was subtracted and the maximum rescue in the particular experiment was normalized to 100%.

[3] = tested on: Aβ peptide; assay: Yeast growth rescue, Aβ peptide proteinopathy model; type: cell-based
Method: (A) Structure of lead compound ABI. (B) Dose-response curves showing the relative rescue of ABI (log2, μM) in five yeast proteinopathy models. Rescue is relative to a positive control compound as determined by growth (OD600). (C) Localization of α-syn-GFP in strains with increasing toxicity: NoTox, InTox, HiTox and HiTox treated with 10 μM ABI. […] (E) (Left panel) Western blot of α-syn-GFP in NoTox, InTox, and HiTox strains with anti-α-syn antibody. (Right panel) Quantitation of western blot (α-syn relative to total protein quantitated from a Coomassie gel and normalized to 100% for HiTo). **: P<0.01; and ***: P<0.001, according to one-way ANOVA and a Tukey's test.
Yeast strains expressing toxic proteins have been described previously (6, 9, 33, 34) (Table 1). All strains have either single or multiple inserts for galactose-inducible expression. In addition, all stains have either deletions of the Δpdr1::KanMX and Δpdr3::KanMX or Δpdr5::KanMX to reduce efflux of compounds and required compound dosing. Yeast were cultured in complete synthetic media (CSM) and an appropriate dropout (minus HIS or URA) to maintain plasmids if required. […]
Starting cultures for all dose-response assays were established as described above. […] Plates were then read with a Tecan Saphire plate reader at OD600.

[4] = tested on: reactive oxygen species; assay: ROS detection (CM-H2DCFDA, flow cytometry) in α-syn yeast; type: cell-based; settings: 10 μM, HiTox strain
Method: The generation of reactive oxygen species (ROS) detected from yeast expressing untagged α-syn using the ROS sensing dye, CM-H2DCFDA (Invitrogen), as previously described (9). Briefly, log phase raffinose cultures of α-syn (non-GFP tagged) were induced with galactose with or without ABI1 for 6 hours. At this time, the dye was added for an additional 30 minutes. Cells were then analyzed using an EasyCyte flow cytometer (Guava Technologies).

[5] = tested on: α-syn foci; assay: α-syn-GFP localization / foci microscopy in yeast; type: cell-based; settings: α-syn-expressing yeast
Method: Logarithmic growing raffinose cultures were induced with galactose for five hours in the presence or absence of the indication concentration of ABI. Cells were centrifuged, media discarded, and then fixed with 4% paraformaldehyde in 1×PBS for 1 hr. The fixed culture was centrifuged, and the pellet resuspended in 0.4% paraformaldehyde in 1×PBS and kept at 4° C. Single plain images were taken at 100× magnification with a Nikon Eclipse Ti microscope.

[6] = tested on: nitrosative stress; assay: Nitrosative stress (protein nitration, 3-NT antibody) in yeast synucleinopathy model; type: cell-based
[7] = tested on: TH-positive (dopaminergic) neurons; assay: Primary ventral mesencephalic cultures transduced with A53T α-syn; type: cell-based, rat; settings: A53T α-syn adenovirus, 0.1 μM
Method: Experiments aimed at monitoring dopaminergic cell viability in primary mesencephalic cultures were performed as described previously (7-9). Briefly, cells obtained from the midbrains of E17 rat embryos were plated at a density of 2.18×10^3 cells per mm^2 on a 48-well plate. Four days after plating, the cells were treated with cytosine arabinofuranoside (20 μM) to restrict the growth of glial cells. Three days later (7 days in vitro), the cells were transduced with an adenovirus encoding A53T α-syn, generated using the Invitrogen ViraPower Adenoviral Expression System (38), at a multiplicity of infection (MOI) of 15 in the absence or presence of ABI1 (0.1 μM). After a 72-h transduction period, the media was replaced with fresh media with or without ABI1 for an additional 24 h. […] MAP2- and TH-immunoreactive neurons were counted by an investigator blinded to the identity of the treatment conditions in at least ten randomly chosen observation fields (encompassing ˜800-1600 MAP2^+ neurons) per treatment using a Nikon TE2000-U inverted fluorescence microscope with a 20× objective. Relative dopaminergic cell viability was calculated as the percentage of MAP2-positive neurons that were also TH-positive and normalized by the value determined for control cells (set to 100%). […]

Cc1cccc(-n2cnc3cc(C(=O)NCc4ccccc4Cl)ccc32)c1 [ABI, N-(2-chlorobenzyl)-1-(m-tolyl)-1H-benzo[d]imidazole-5-carboxamide]
ER-to-Golgi trafficking (Cpy) / forward protein trafficking through the ER [1]: directly ameliorated an ER-Golgi trafficking block
growth-inhibitory concentration relative to EC50 in rescuing α-syn toxicity [2]: about four-fold
potency and efficacy against α-syn (rescue of growth) ([2]; compared with TDP-43 model): much greater potency and efficacy
efficacy against Aβ peptide [3]: not, however, effective
generation of reactive oxygen species (% of ROS-positive cells) [4]: completely abolished; also recorded: reduced the % of ROS-positive cells
accumulation of cytoplasmic α-syn foci / inclusions [5]: prevented the accumulation of cytoplasmic α-syn foci
nitrosative stress [6]: prevented the generation of highly localized nitrosative stress
retraction of neuronal processes / neurite length [7]: markedly reduced the retraction of neuronal processes; also recorded: reversed
survival of TH-positive neurons (% of MAP2-positive neurons) [7]: largely restored the survival; also recorded: reversed
